Test results as given in patent US20260098061A1, “EPHA2-BINDING PENDING PEPTIDE AND COMPOSITION COMPRISING SAME” (PeptiDream Inc., priority 2022, published 2026).
pKd: −log10 of the molar value. Numbered stars: 1 amine (or outer) side, 2 acyl side, 3 side chain; on linkers, the order of the positions; unused ones are H or OH. Bridge positions count the residues as written; N and C are the ends. Square brackets hold non-standard residues; d marks the D form. Side chains are listed from the residue outwards. Peptide text beside a SMILES is read from it. * marks the point of attachment. X6 = Cn1cc(C[C@H](N[*:1])C(=O)[*:2])c2cccnc21; Piperazinyl(4-CH2COOH) = O=C(O)CN1CCN(*)CC1; Trp(1-Me) = Cn1cc(C[C@H](N)C(=O)O)c2ccccc21; X5 = Cc1cccc(C[C@H](N[*:1])C(=O)[*:2])c1C; NMe3Pal = CN[C@@H](Cc1cccnc1)C(=O)O; NMeF = CN[C@@H](Cc1ccccc1)C(=O)O; Gly(cBu) = N[C@H](C(=O)O)C1CCC1; NMeE = CN[C@@H](CCC(=O)O)C(=O)O; Aad = N[C@@H](CCCC(=O)O)C(=O)O; NMeN = CN[C@@H](CC(N)=O)C(=O)O; Chg = N[C@H](C(=O)O)C1CCCCC1; CO = O=C([*:1])[*:2]

Target: T1, Recombinant Human EphA2 Fc Protein (Homo sapiens, UniProt P29317)
T1 construct: purchased Elabscience
Test: SPR interaction analysis (Biacore T200), kinetics of peptides against EphA2
Format: binding
Conditions: Recombinant Human EphA2 Fc Protein captured by Human Antibody Capture kit; single-cycle kinetics; 25° C.; HBS-P+ buffer with 1% DMSO
How it was run: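 KD derived from ka and kd, fitted on baseline-subtracted sensorgrams from single-cycle kinetics of five peptide dilutions. Running buffer: HBS-P+ (pH 7.4) plus 1% DMSO, 25° C, Biacore T200. Recombinant human EphA2-Fc held on an antibody capture surface.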

pKd | Compound
> 9.00 | CC(C)C[C@@H]1NC(=O)[C@H](CC(N)=O)NC(=O)[C@H](Cc2cccnc2)N(C)C(=O)[C@@H](C)NC(=O)CSC[C@@H](C(N)=O)NC(=O)[C@H](CCCC(N)=O)NC(=O)[C@H]([C@@H](C)O)NC(=O)[C@H](Cc2cn(C)c3ccccc23)NC(=O)[C@H](CCCCNC(=O)N2CCN(CC(=O)O)CC2)NC(=O)[C@H](Cc2cn(C)c3ccccc23)NC(=O)[C@H](Cc2ccccc2)N(C)C(=O)[C@H](CCCC(N)=O)NC1=O [PDC_EphA2-00009998, da-Me3Py-N-L-Hgn-MeF-W1Me-KCOpipzaa-W1Me-T-Hgn-C-NH2] ({CH2CO}-[dA][NMe3Pal]NL[Aad](NH2)[NMeF][Trp(1-Me)]K([CO-Piperazinyl(4-CH2COOH)])[Trp(1-Me)]T[Aad](NH2)C-NH2; thioether N-12)
> 9.00 | C[C@H]1NC(=O)CSC[C@@H](C(N)=O)NC(=O)[C@H](CCCC(N)=O)NC(=O)[C@H]([C@@H](C)O)NC(=O)[C@H](Cc2cn(C)c3ccccc23)NC(=O)[C@H](CCCCNC(=O)N2CCN(CC(=O)O)CC2)NC(=O)[C@H](Cc2cn(C)c3ccccc23)NC(=O)[C@H](Cc2ccccc2)N(C)C(=O)[C@H](CCCC(N)=O)NC(=O)[C@H](C2CCC2)NC(=O)[C@H](CC(N)=O)NC(=O)[C@H](Cc2cccnc2)N(C)C1=O [PDC_EphA2-00009999, da-Me3Py-N-Cbg-Hgn-MeF-W1Me-KCOpipzaa-W1Me-T-Hgn-C-NH2] ({CH2CO}-[dA][NMe3Pal]N[Gly(cBu)][Aad](NH2)[NMeF][Trp(1-Me)]K([CO-Piperazinyl(4-CH2COOH)])[Trp(1-Me)]T[Aad](NH2)C-NH2; thioether N-12)
> 9.00 | C[C@H]1NC(=O)CSC[C@@H](C(N)=O)NC(=O)[C@H](CCCC(N)=O)NC(=O)[C@H]([C@@H](C)O)NC(=O)[C@H](Cc2cn(C)c3ccccc23)NC(=O)[C@H](CCCCNC(=O)N2CCN(CC(=O)O)CC2)NC(=O)[C@H](Cc2cn(C)c3ccccc23)NC(=O)[C@H](CC(N)=O)NC(=O)[C@H](CCCC(N)=O)NC(=O)[C@H](C2CCC2)NC(=O)[C@H](CC(N)=O)NC(=O)[C@H](Cc2cccnc2)N(C)C1=O [PDC_EphA2-00010000, da-Me3Py-N-Cbg-Hgn-N-W1Me-KCOpipzaa-W1Me-T-Hgn-C-NH2] ({CH2CO}-[dA][NMe3Pal]N[Gly(cBu)][Aad](NH2)N[Trp(1-Me)]K([CO-Piperazinyl(4-CH2COOH)])[Trp(1-Me)]T[Aad](NH2)C-NH2; thioether N-12)
> 9.00 | C[C@H]1NC(=O)CSC[C@@H](C(N)=O)NC(=O)[C@H](CCCC(N)=O)NC(=O)[C@H]([C@@H](C)O)NC(=O)[C@H](Cc2cn(C)c3ccccc23)NC(=O)[C@H](CCCCNC(=O)N2CCN(CC(=O)O)CC2)NC(=O)[C@H](Cc2cn(C)c3ccccc23)NC(=O)[C@H](CC(N)=O)N(C)C(=O)[C@H](CCCC(N)=O)NC(=O)[C@H](C2CCC2)NC(=O)[C@H](CC(N)=O)NC(=O)[C@H](Cc2cccnc2)N(C)C1=O [PDC_EphA2-00010001, da-Me3Py-N-Cbg-Hgn-MeN-W1Me-KCOpipzaa-W1Me-T-Hgn-C-NH2] ({CH2CO}-[dA][NMe3Pal]N[Gly(cBu)][Aad](NH2)[NMeN][Trp(1-Me)]K([CO-Piperazinyl(4-CH2COOH)])[Trp(1-Me)]T[Aad](NH2)C-NH2; thioether N-12)
> 9.00 | C[C@H]1NC(=O)CSC[C@@H](C(N)=O)NC(=O)[C@H](CCCC(N)=O)NC(=O)[C@H]([C@@H](C)O)NC(=O)[C@H](Cc2cn(C)c3ccccc23)NC(=O)[C@H](CCCCNC(=O)N2CCN(CC(=O)O)CC2)NC(=O)[C@H](Cc2cn(C)c3ncccc23)NC(=O)[C@H](Cc2ccccc2)N(C)C(=O)[C@H](CCCC(N)=O)NC(=O)[C@H](C2CCC2)NC(=O)[C@H](CC(N)=O)NC(=O)[C@H](Cc2cccnc2)N(C)C1=O [PDC_EphA2-00010002, da-Me3Py-N-Cbg-Hgn-MeF-W1Me7N-KCOpipzaa-W1Me-T-Hgn-C-NH2] ({CH2CO}-[dA][NMe3Pal]N[Gly(cBu)][Aad](NH2)[NMeF][X6]K([CO-Piperazinyl(4-CH2COOH)])[Trp(1-Me)]T[Aad](NH2)C-NH2; thioether N-12)
> 9.00 | Cc1cccc(C[C@@H]2NC(=O)[C@H](CCCCNC(=O)N3CCN(CC(=O)O)CC3)NC(=O)[C@H](Cc3cn(C)c4ccccc34)NC(=O)[C@H](Cc3ccccc3)N(C)C(=O)[C@H](CCCC(N)=O)NC(=O)[C@H](C3CCC3)NC(=O)[C@H](CC(N)=O)NC(=O)[C@H](Cc3cccnc3)N(C)C(=O)[C@@H](C)NC(=O)CSC[C@@H](C(N)=O)NC(=O)[C@H](CCCC(N)=O)NC(=O)[C@H]([C@@H](C)O)NC2=O)c1C [PDC_EphA2-00010003, da-Me3Py-N-Cbg-Hgn-MeF-W1Me-KCOpipzaa-F23dMe-T-Hgn-C-NH2] ({CH2CO}-[dA][NMe3Pal]N[Gly(cBu)][Aad](NH2)[NMeF][Trp(1-Me)]K([CO-Piperazinyl(4-CH2COOH)])[X5]T[Aad](NH2)C-NH2; thioether N-12)
> 9.00 | C[C@H]1NC(=O)CSC[C@@H](C(N)=O)NC(=O)[C@H](CC(N)=O)NC(=O)[C@H]([C@@H](C)O)NC(=O)[C@H](Cc2cn(C)c3ccccc23)NC(=O)[C@H](CCCCNC(=O)N2CCN(CC(=O)O)CC2)NC(=O)[C@H](Cc2cn(C)c3ccccc23)NC(=O)[C@H](Cc2ccccc2)N(C)C(=O)[C@H](CCCC(N)=O)NC(=O)[C@H](C2CCC2)NC(=O)[C@H](CC(N)=O)NC(=O)[C@H](Cc2cccnc2)N(C)C1=O [PDC_EphA2-00010004, da-Me3Py-N-Cbg-Hgn-MeF-W1Me-KCOpipzaa-W1Me-T-N-C-NH2] ({CH2CO}-[dA][NMe3Pal]N[Gly(cBu)][Aad](NH2)[NMeF][Trp(1-Me)]K([CO-Piperazinyl(4-CH2COOH)])[Trp(1-Me)]TNC-NH2; thioether N-12)
> 9.00 | C[C@H]1NC(=O)CSC[C@@H](C(N)=O)NC(=O)[C@H](CCCC(N)=O)NC(=O)[C@H]([C@@H](C)O)NC(=O)[C@H](Cc2cn(C)c3ccccc23)NC(=O)[C@H](CCCCNC(=O)N2CCN(CC(=O)O)CC2)NC(=O)[C@H](Cc2cn(C)c3ccccc23)NC(=O)[C@H](Cc2ccccc2)N(C)C(=O)[C@H](CCCC(N)=O)NC(=O)[C@H](C2CCCCC2)NC(=O)[C@H](CC(N)=O)NC(=O)[C@H](Cc2cccnc2)N(C)C1=O [PDC_EphA2-00010005, da-Me3Py-N-Chg-Hgn-MeF-W1Me-KCOpipzaa-W1Me-T-Hgn-C-NH2] ({CH2CO}-[dA][NMe3Pal]N[Chg][Aad](NH2)[NMeF][Trp(1-Me)]K([CO-Piperazinyl(4-CH2COOH)])[Trp(1-Me)]T[Aad](NH2)C-NH2; thioether N-12)
> 9.00 | CC(C)C[C@@H]1NC(=O)[C@H](CC(N)=O)NC(=O)[C@H](Cc2cccnc2)N(C)C(=O)[C@@H](C)NC(=O)CSC[C@@H](C(N)=O)NC(=O)[C@H](CCCC(N)=O)NC(=O)[C@H]([C@@H](C)O)NC(=O)[C@H](Cc2cn(C)c3ccccc23)NC(=O)[C@H](CCCCNC(=O)N2CCN(CC(=O)O)CC2)NC(=O)[C@H](Cc2cn(C)c3ccccc23)NC(=O)[C@H](CCC(=O)O)N(C)C(=O)[C@H](CCCC(=O)O)NC1=O [PDC_EphA2-00010006, da-Me3Py-N-L-Hgl-MeE-W1Me-KCOpipzaa-W1Me-T-Hgn-C-NH2] ({CH2CO}-[dA][NMe3Pal]NL[Aad][NMeE][Trp(1-Me)]K([CO-Piperazinyl(4-CH2COOH)])[Trp(1-Me)]T[Aad](NH2)C-NH2; thioether N-12)
> 9.00 | C[C@H]1NC(=O)CSC[C@@H](C(N)=O)NC(=O)[C@H](CCCC(N)=O)NC(=O)[C@H]([C@@H](C)O)NC(=O)[C@H](Cc2cn(C)c3ccccc23)NC(=O)[C@H](CCCCNC(=O)N2CCN(CC(=O)O)CC2)NC(=O)[C@H](Cc2cn(C)c3ccccc23)NC(=O)[C@H](CCC(=O)O)N(C)C(=O)[C@H](CCCC(=O)O)NC(=O)[C@H](C2CCC2)NC(=O)[C@H](CC(N)=O)NC(=O)[C@H](Cc2cccnc2)N(C)C1=O [PDC_EphA2-00010007, da-Me3Py-N-Cbg-Hgl-MeE-W1Me-KCOpipzaa-W1Me-T-Hgn-C-NH2] ({CH2CO}-[dA][NMe3Pal]N[Gly(cBu)][Aad][NMeE][Trp(1-Me)]K([CO-Piperazinyl(4-CH2COOH)])[Trp(1-Me)]T[Aad](NH2)C-NH2; thioether N-12)
> 9.00 | CC(C)C[C@@H]1NC(=O)[C@H](CC(N)=O)NC(=O)[C@H](Cc2cccnc2)N(C)C(=O)[C@@H](C)NC(=O)CSC[C@@H](C(N)=O)NC(=O)[C@H](CCCC(N)=O)NC(=O)[C@H]([C@@H](C)O)NC(=O)[C@H](Cc2cn(C)c3ccccc23)NC(=O)[C@H](CCCCNC(=O)N2CCN(CC(=O)O)CC2)NC(=O)[C@H](Cc2cn(C)c3ccccc23)NC(=O)[C@H](CCC(=O)O)N(C)C(=O)[C@H](CCCC(N)=O)NC1=O [PDC_EphA2-00010008, da-Me3Py-N-L-Hgn-MeE-W1Me-KCOpipzaa-W1Me-T-Hgn-C-NH2] ({CH2CO}-[dA][NMe3Pal]NL[Aad](NH2)[NMeE][Trp(1-Me)]K([CO-Piperazinyl(4-CH2COOH)])[Trp(1-Me)]T[Aad](NH2)C-NH2; thioether N-12)
> 9.00 | C[C@H]1NC(=O)CSC[C@@H](C(N)=O)NC(=O)[C@H](CCCC(N)=O)NC(=O)[C@H]([C@@H](C)O)NC(=O)[C@H](Cc2cn(C)c3ccccc23)NC(=O)[C@H](CCCCNC(=O)N2CCN(CC(=O)O)CC2)NC(=O)[C@H](Cc2cn(C)c3ccccc23)NC(=O)[C@H](CCC(=O)O)N(C)C(=O)[C@H](CCCC(N)=O)NC(=O)[C@H](C2CCC2)NC(=O)[C@H](CC(N)=O)NC(=O)[C@H](Cc2cccnc2)N(C)C1=O [PDC_EphA2-00010009, da-Me3Py-N-Cbg-Hgn-MeE-W1Me-KCOpipzaa-W1Me-T-Hgn-C-NH2] ({CH2CO}-[dA][NMe3Pal]N[Gly(cBu)][Aad](NH2)[NMeE][Trp(1-Me)]K([CO-Piperazinyl(4-CH2COOH)])[Trp(1-Me)]T[Aad](NH2)C-NH2; thioether N-12)
> 9.00 | CC(C)[C@@H]1NC(=O)[C@H](Cc2cn(C)c3ccccc23)NC(=O)[C@H](CC(N)=O)NC(=O)[C@H](CCCC(N)=O)NC(=O)[C@H](C2CCC2)NC(=O)[C@H](CC(N)=O)NC(=O)[C@H](Cc2cccnc2)N(C)C(=O)[C@@H](C)NC(=O)CSC[C@@H](C(N)=O)NC(=O)[C@H](CCCC(N)=O)NC(=O)[C@H]([C@@H](C)O)NC(=O)[C@H](Cc2cn(C)c3ccccc23)NC1=O [PDC_EphA2-00010010, da-Me3Py-N-Cbg-Hgn-N-W1Me-V-W1Me-T-Hgn-C-NH2] ({CH2CO}-[dA][NMe3Pal]N[Gly(cBu)][Aad](NH2)N[Trp(1-Me)]V[Trp(1-Me)]T[Aad](NH2)C-NH2; thioether N-12)
